This note sets out measurements from patent US4463001A, “6-Substituted 6H-dibenzo[b,d]pyran derivatives and process for their preparation” (Farmitalia Carlo Erba S.p.A., priority 1980, dated 1984).

The structures appear in SMILES notation. Some results are limits rather than exact numbers.

Broadly, the LD50 is the dose at which mortality reaches 50%. The low end stands for greater toxicity, the high end for lower toxicity. In general, ED50 refers to the dose at which the effect has come halfway, by size or by number of responders.

Data set [1] is described as follows: orientative acute toxicity (LD50) in mice. The conditions noted are these: mouse, in vivo, single oral administration, assessed on seventh day. As for the experimental part:
The toxicity of the compounds of the invention is negligible. Nine hours food deprived mice were treated orally with single administration of increasing doses, then housed and normally fed. The orientative acute toxicity (LD50) was assessed on the seventh day after the treatment and, for example, the following data were obtained: […]

For another data set, the system named is gastric secretion. Kind of data set: inhibition of gastric secretion in pylorus-ligated rats (antisecretory activity, method of Shay). The conditions noted are these: 4 h; rat, intraduodenal, approximate ED50; read-out: Antisecretory activity ED50 i.d. In kind it is in vivo, rat (Sprague-Dawley male). On the procedure: According to this method the tested compounds were injected intraduodenally (i.d.) at the time of ligature.
Six Sprague-Dawley male rats (110-130 g) were used for each group. Twenty-four hours before the test, the rats were deprived of food but the water supply was maintained. On the day of the operation, the pylorus was ligated under light ether anaesthesia. Four hours after the ligature, the rats were sacrificed. The stomach secretion was collected and centrifugated at 3500 r.p.m. for 10 minutes and the volume, less sediment, was determined.
The amount of free hydrochloric acid in the gastric juice was determined by titration against 0.01N sodium hydroxide, to an end point of pH 7.

Data set [2] concerns syndrome induced by oxotremorine. Kind of data set: antagonism against syndrome induced by oxotremorine in mice (anti-cholinergic activity). In kind it is in vivo, mice (male). The note with it: Mus musculus, po, approximate ED50, read-out: Anticholinergic activity ED50 p.o. On the procedure:
Considering that many anti-ulcer agents display, as does atropine, a remarkable but undesired anti-cholinergic activity, the compounds of the invention were also assessed for their antagonism against syndrome induced by oxotremorine in mice, according to the method described by Leszkovszky G. P. and Tardos L. (Europ. J. Pharmac. 1971, 15, 310). According to this method 5 male mice, 20-25 g body weight, were used for each group.

The next data set relates to restraint ulcers. Kind of data set: inhibition of restraint ulcers in rats (anti-ulcerogenic activity). In kind it is in vivo, rat (Sprague-Dawley male). The conditions noted are these: po, 4 h; rat, p.o., approximate ED50; read-out: Antiulcerogenic activity ED50 p.o. The source says:
The compounds of the invention are also useful for reducing the undesirable gastrointestinal side-effects resulting from systemic administration of anti-inflammatory prostaglandin synthetase inhibitors and may be, therefore, used for this purpose in association with them. The anti-ulcerogenic activity of the compounds of the invention is shown, e.g., by the fact that they are active in the test of the inhibition of restraint ulcers in rats, according to the method of Bonfils et al., (Therapie, 1960, 5, 1096; Jap. J. Pharmac. 1945, 43, 5).
According to this method, the tested compounds were administered per os (p.o.) one hour before the immobilization. Six Sprague-Dawley male rats (100-120 g) fasted 24 hours were used for the experiment: a square flexible small-mesh wire netting was used for the immobilization and 4 hours after the immobilization the rats were sacrificed, their stomachs were removed and the lesions counted under a dissecting microscope.

The test system of data set [3] is influenza virus strain APR 8. Put plainly: influenza virus experimental infection in mice. In kind it is in vivo, CD-1 mice. The note with it: single dose one or two days after the infection. As for the experimental part:
(§1) The antiviral activity of the compound of the invention was, for example, evaluated on influenza and herpes simplex viruses experimental infections in mice.
(§2) Groups of CD-1 mice were infected intranasally with the strain APR 8 of influenza virus and other groups were infected intraperitoneally with the strain 1RC of herpes simplex virus. The tested compounds were administered through various routes, e.g. intraperitoneally, subcutaneously, orally.
(§3) The effect of the tested compounds, against the influenza virus, was evaluated on the basis of the number of lung lesions and, against the herpes infection, the parameter considered was the protection from mortality since, as is known, herpes simplex infection is lethal in mice.

Data set [4] deals with herpes simplex virus strain 1RC. Kind of data set: herpes simplex virus experimental infection in mice. It counts as in vivo, CD-1 mice. The note with it: single dose one or two days after the infection. As for the experimental part: as §1, §2, §3
Data set [5] has as its system antibody response against sheep red blood cells (SRBC). Put plainly: antibody response induced in mice by suboptimal dose of sheep red blood cells (immunomodulating activity). The note with it: i.p., 50 and 5 mg/kg two hours before antigen, vs control group, six days later. In kind it is in vivo, mice (female CD-1). As for the experimental part:
Their immunomodulating activity is, for example, proven by their capacity to modify the antibody response induced in mice by a suboptimal dose of sheep red blood cells (SRBC) injected by intraperitoneal route (i.p.).
Groups of ten female CD-1 mice were injected i.p. with 2×10^6 SRBC as antigen. The tested compounds were administered i.p. at two dosage levels: 50 and 5 mg/kg body weight, two hours before the administration of the antigen. A control group of mice received SRBC and saline instead of the compounds. Six days later the mice were killed and antibody titres against SRBC determined in their sera, according to Williams C. A.: Methods in Immunology and Immunochemistry, C. A. Williams and M. W. Chase, Eds. Academic Press, New York, Vol. II, page 152, 1977.

A short description of data set [6]: lipid-lowering activity in rats fed standard MS/K Altromin diet (Experiment 2). It counts as in vivo, rat (Iva-SIV (SPF) male). On the procedure:
(§4) The activity of the compounds of the invention was evaluated: (1) on groups of Icem:CER (SPF Caw) male rats, fed for six days with hypercholesterolaemic diet according to C. E. Day: Shur P. E., Shultz H. R., Day C. E. (Ed.) Atherosclerosis and drug discovery Plenum Pub. Corp., 217 (1976): Experiment 1; or (2) or groups of Iva-SIV (SPF) male rats fed standard MS/K Altromin® diet: Experiment 2. MS/K Altromin is a trade mark.
(§5) The tested compounds were suspended in Methocel (methyl-cellulose, a 0.5% solution in water) and administered by stomach tube at the dose of 50 mg/kg for 4 days in both the experiments.
(§6) Groups of animals were treated with the suspending agent only (control groups).
(§7) The total serum cholesterol was determined with the method of Allain, Clin. Chem., 1974, 20, 470.
The serum triglycerides were determined with the method of Mendez, J. Clin. Chem., 1975, 21, 768.
(§8) The total serum HDL cholesterol was determined according to Demacker P. N. H., Clin. Chem., 1977, 23, 1238.
(§9) The total β-lipoprotein cholesterol was determined by difference between total serum cholesterol and HDL cholesterol. Statistical analysis in experiment 1 and 2 was performed by the Student's t test for independent samples or by the Cochran's test when the variances were not homogeneous at the F ratio test [Bliss C. I., Statistics in Biology, Vol. 1, page 213 McGraw Hill Book Company, New York 1967; Cochran W. G., Cox C. H., Experimental designs-J. Willey and Sons Inc., New York, II Ed. (1968), page 100].

A short description of data set [7]: lipid-lowering activity in rats fed hypercholesterolaemic diet (Experiment 1). In kind it is in vivo, rat (Icem:CER (SPF Caw) male). As for the experimental part:
as §4, §5, §6, §7, §8, §9

[8] abbreviates: Experiment 2, 50 mg/kg/os, vs control.

In data set [1], `N#CC1Oc2ccccc2-c2ccccc21` (centres unmarked) [FCE 20493, 6H,6-cyano-dibenzo[b,d]pyran] gave a median lethal dose (LD50) at 168 h of 400 to 800 mg/kg.

Turning to `N#CC1(CO)Oc2ccccc2-c2ccccc21` (centres unmarked) [FCE 20518, 6H,6-cyano-6-hydroxymethyl-dibenzo[b,d]pyran], in [1], the LD50 at 168 h was over 800 mg/kg.

In turn, `CC1(C#N)Oc2ccccc2-c2ccccc21` (centres unmarked) [FCE 20519, 6H,6-cyano-6-methyl-dibenzo[b,d]pyran] came in with a median lethal dose (LD50) at 168 h in data set [1] of over 800 mg/kg.

As to `CCOC(=O)C1Oc2ccccc2-c2ccccc21` (centres unmarked) [FCE 20521, 6H,6-ethoxycarbonyl-dibenzo[b,d]pyran], the LD50 at 168 h in data set [1] was over 800 mg/kg.

With `NCC1Oc2ccccc2-c2ccccc21` (centres unmarked) [FCE 20524, 6H,6-aminomethyl-dibenzo[b,d]pyran], in [1], the LD50 at 168 h lay in the range of 400 to 800 mg/kg. For the same compound, the ED50 was 6 mg/kg with gastric secretion, over 100 mg/kg in [2] and 4.8 mg/kg in the data set with restraint ulcers.

Compound `O=C(O)C1(CO)Oc2ccccc2-c2ccccc21` (centres unmarked) [FCE 20561, 6H,6-carboxy-6-hydroxymethyl-dibenzo[b,d]pyran] yielded a median lethal dose (LD50) at 168 h in data set [1] of over 800 mg/kg.

Regarding `CC1(C(=O)O)Oc2ccccc2-c2ccccc21` (centres unmarked) [FCE 20562, 6H,6-carboxy-6-methyl-dibenzo[b,d]pyran], the LD50 at 168 h in [1] was 400 to 800 mg/kg.

`c1ccc2c(c1)OC(N1CCNCC1)c1ccccc1-2` (centres unmarked) [FCE 20618, 6H,6-(1-piperazinyl)-dibenzo[b,d]pyran]: the 50% lethal dose (LD50) at 168 h in data set [1] fell in the range of 400 to 800 mg/kg. Further, the results for the 50% effective dose (ED50) (with gastric secretion; in data set [2]; with restraint ulcers) were 1.5 mg/kg, over 100 mg/kg and 7 mg/kg, respectively.

With `CN(C)CCOC(=O)C1Oc2ccccc2-c2ccccc21` (centres unmarked) [FCE 20696, 6H,6-(2-dimethylaminoethoxycarbonyl)-dibenzo[b,d]pyran], the “number of lung lesions” value in data set [3] is “reducing substantially the number of lung lesions”. The compound further returned a 50% lethal dose (LD50) at 168 h in [1] of 400 to 800 mg/kg. Moreover, in data set [4], the “protection from mortality (animals protected from death)” value is on record as “up to 45%”. Moreover, the “antibody titres against SRBC” value in [5] is “increased the antibody titers several fold as compared to control group”.

For `CC1(C(=O)O)Oc2ccc(Cl)cc2-c2ccccc21` (centres unmarked) [FCE 20770, 6H,6-carboxy-6-methyl-2-chloro-dibenzo[b,d]pyran], the median lethal dose (LD50) at 168 h in data set [1] lay in the range of 400 to 800 mg/kg.

Consider `O=C(O)CC1Oc2ccccc2-c2ccccc21` (centres unmarked) [FCE 20881, 6H,6-carboxymethyl-dibenzo[b,d]pyran], for which, in data set [6] (Experiment 2, 50 mg/kg/os for 4 days, standard diet, control 27.1 ± 1.1), the “β-lipoprotein cholesterol, mean ± S.E.” value is on record as 20.5 ± 0.8 mg/100 ml. In addition, the “Total serum cholesterol, mean ± S.E.” value in data set [6] (Experiment 2, 50 mg/kg/os for 4 days, standard diet, control 66.3 ± 1.7) is recorded as 57.7 ± 1.5 mg/100 ml. Further, the “Serum triglycerides (printed "trygylcerides"), mean ± S.E.” value in [6] (Experiment 2, 50 mg/kg/os for 4 days, standard diet, control 228.7 ± 18.9) came to 168.3 ± 13.4 mg/100 ml. For the same compound, in data set [6] (setting [8]), the “Serum triglycerides, Student's t test result” value is “S (significant (p <0.05))”; the “Total serum cholesterol, Student's t test result” value was “HS (highly significant (p <0.01))”; the “β-lipoprotein cholesterol, Student's t test result” value is on record as “HS (highly significant (p <0.01))”. Also, the “effect on total serum cholesterol, β-lipoprotein cholesterol and serum triglycerides” value in [6] (Experiment 2, in words) is “decrease the total serum cholesterol, in particular β-lipoprotein cholesterol and serum triglycerides”. This compound also gave an LD50 at 168 h in [1] of 400 to 800 mg/kg. In addition, the “Serum HDL total cholesterol, mean ± S.E.” value in data set [7] (Experiment 1, 50 mg/kg/os for 4 days, hypercholesterolaemic diet, control 13.2 ± 1.8) came out at 23.2 ± 0.5 mg/100 ml. Further, the “Total serum cholesterol, mean ± S.E.” value in data set [7] (Experiment 1, 50 mg/kg/os for 4 days, hypercholesterolaemic diet, control 459.6 ± 51.7) came out at 240.0 ± 20.7 mg/100 ml. The “effect on total serum cholesterol and total HDL cholesterol” value in data set [7] (Experiment 1, in words) was “decrease the total serum cholesterol and to increase the total HDL cholesterol”.

Consider `CCN(CC)CCOC(=O)C1Oc2ccccc2-c2ccccc21` (centres unmarked) [FCE 21849, 6H,6-(2-diethylaminoethoxycarbonyl)-dibenzo[b,d]pyran], for which, in [1], the LD50 at 168 h lay within 400 to 800 mg/kg. Moreover, the “antibody titres against SRBC” value in data set [5] is given as “increased the antibody titers several fold as compared to control group”.
